The record followed here is article PMC3681809 (Cancer cell, 2013).

This test concerns the target EZH1 (Homo sapiens, UniProt Q92800). As to the kind of experiment: histone methyltransferase selectivity assay. In kind it is biochemical.

Each structure is given as a SMILES string.

EZH1, sequence (Q92800 whole entry): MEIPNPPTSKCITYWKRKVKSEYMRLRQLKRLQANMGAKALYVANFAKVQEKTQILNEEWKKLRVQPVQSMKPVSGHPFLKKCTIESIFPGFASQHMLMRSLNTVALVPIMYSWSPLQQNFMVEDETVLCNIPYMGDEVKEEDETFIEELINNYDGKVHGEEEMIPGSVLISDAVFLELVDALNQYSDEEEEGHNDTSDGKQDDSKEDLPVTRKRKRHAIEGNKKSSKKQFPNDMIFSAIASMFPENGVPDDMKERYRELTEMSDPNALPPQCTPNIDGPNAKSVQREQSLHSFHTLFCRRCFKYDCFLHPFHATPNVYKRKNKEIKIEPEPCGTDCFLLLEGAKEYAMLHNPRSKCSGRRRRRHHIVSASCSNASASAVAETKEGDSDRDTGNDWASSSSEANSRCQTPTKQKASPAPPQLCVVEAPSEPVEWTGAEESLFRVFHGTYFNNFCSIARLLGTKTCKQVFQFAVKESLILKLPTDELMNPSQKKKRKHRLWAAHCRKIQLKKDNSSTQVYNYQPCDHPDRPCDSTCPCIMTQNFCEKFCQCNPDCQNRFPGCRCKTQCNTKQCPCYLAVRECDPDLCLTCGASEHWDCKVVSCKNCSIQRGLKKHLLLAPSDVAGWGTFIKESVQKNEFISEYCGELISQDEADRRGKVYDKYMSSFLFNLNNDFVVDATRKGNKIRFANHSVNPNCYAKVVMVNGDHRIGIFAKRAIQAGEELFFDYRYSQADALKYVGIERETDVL
EZH1, sequence (O75530 2-441 partner): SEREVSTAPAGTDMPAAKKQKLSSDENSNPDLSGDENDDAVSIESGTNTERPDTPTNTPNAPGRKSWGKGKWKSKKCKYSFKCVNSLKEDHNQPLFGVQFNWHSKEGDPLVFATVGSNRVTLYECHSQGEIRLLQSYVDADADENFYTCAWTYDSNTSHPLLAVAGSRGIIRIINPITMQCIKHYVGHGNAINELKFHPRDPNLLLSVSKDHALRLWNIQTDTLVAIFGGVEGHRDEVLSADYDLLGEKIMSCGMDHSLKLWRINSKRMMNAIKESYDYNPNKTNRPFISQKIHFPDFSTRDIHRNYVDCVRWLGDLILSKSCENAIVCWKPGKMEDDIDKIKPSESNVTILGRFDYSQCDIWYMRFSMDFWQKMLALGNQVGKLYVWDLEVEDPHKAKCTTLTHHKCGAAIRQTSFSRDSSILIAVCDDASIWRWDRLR
EZH1, sequence (Q15022 whole entry partner): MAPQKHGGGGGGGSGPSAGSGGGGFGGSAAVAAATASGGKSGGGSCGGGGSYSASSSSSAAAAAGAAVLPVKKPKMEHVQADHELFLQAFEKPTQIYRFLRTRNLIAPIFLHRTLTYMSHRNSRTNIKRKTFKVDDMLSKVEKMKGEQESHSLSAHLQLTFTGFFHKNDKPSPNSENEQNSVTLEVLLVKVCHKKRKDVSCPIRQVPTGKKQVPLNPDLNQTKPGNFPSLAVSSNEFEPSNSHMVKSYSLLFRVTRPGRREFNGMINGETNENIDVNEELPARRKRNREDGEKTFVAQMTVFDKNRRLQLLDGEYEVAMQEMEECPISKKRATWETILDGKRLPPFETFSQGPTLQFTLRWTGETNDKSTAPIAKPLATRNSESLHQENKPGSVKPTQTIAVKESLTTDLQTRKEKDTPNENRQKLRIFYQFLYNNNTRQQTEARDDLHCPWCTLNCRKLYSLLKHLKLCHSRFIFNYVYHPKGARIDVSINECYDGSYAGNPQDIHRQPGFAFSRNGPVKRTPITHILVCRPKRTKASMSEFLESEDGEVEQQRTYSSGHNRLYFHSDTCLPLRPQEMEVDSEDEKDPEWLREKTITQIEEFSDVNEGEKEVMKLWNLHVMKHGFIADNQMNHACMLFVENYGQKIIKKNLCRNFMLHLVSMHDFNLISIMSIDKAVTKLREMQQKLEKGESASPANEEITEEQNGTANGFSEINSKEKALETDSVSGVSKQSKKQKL

A word on the Ki: it is the dissociation constant of the complex between target and ligand, obtained from inhibition or displacement. Compound `Cc1cc(C)c(CNC(=O)c2cc(-c3ccc(N4CCN(C)CC4)nc3)cc3c2c(C)cn3C(C)C)c(=O)[nH]1` [GSK503] registered an inhibitory constant (Ki) of 636 nM.
